Source: patent US7498304B2, “Angiogenesis-modulating compositions and uses” (Curis, Inc., priority 2002, dated 2009)

tested on: Hedgehog pathway signaling (Shh-induced Gli-transcription) in 10T1/2(s12) cells; experiment: Gli-Luc assay, OCT-SHH-induced luciferase reporter; assay type: cell-based, mouse; conditions: Gli-Luc response, OCT-SHH 0.3 μg/ml
Procedure: Compounds to be tested are dissolved in DMSO to a concentration of 10 mM, and stored at −20° C. To activate the Hedgehog pathway in the assay cells, an octylated (lipid-modified) form of the N-terminal fragment of the Sonic Hedgehog protein (OCT-SHH) is used. This N-terminal SHH fragment is produced bacterially.
Compounds may be tested in the “Gli-Luc” assay below, using the cell line 10T(s12), wherein the cells contain a Hedgehog-responsive reporter construct utilizing Luciferase as the reporter gene. In this way, Hedgehog pathway signaling activity can be measured via the Gli-Luc response.
10t1/2(s12) cells are plated in a 96-well micro-titer plate (MTP) at 20,000 cells/well in full medium [DMEM with 10% FBS]. Then plates are placed in the incubator for incubation overnight (O/N), at 37° C. and 5% CO2. After 24 h, the medium is replaced with Luciferase-assay medium (DMEM with 0.5% FBS). Compounds are thawed and diluted in assay medium at 3:1000 (about 300-fold) resulting in a starting concentration of about 30 μM.
Subsequently, 150 μl of each 30 μM sample is added to the first wells (in triplicate). The MTP samples are then diluted at 3-fold dilutions to a total of seven wells, ultimately resulting in a regiment of seven dilutions in triplicate, for each compound. Next, the protein ligand OCT-SHH is diluted in Luciferase-assay medium and added to each well at a final concentration of 0.3 μg/ml. Plates are then returned to the incubator for further incubation O/N, at 37° C. and 5% CO2. After about 24 h, plates are removed from the incubator and the medium is aspirated/discarded. Wells are washed once with assay buffer [PBS+1 mM Mg^2+ and 1 mM Ca^2+]. Then 50 μl of assay buffer is added to each well. The Luciferase assay reagent is prepared as described by the vendor (LucLite kit from Packard), and 50 μl is added to each well. Plates are incubated at room temperature (RT) for about 30 minutes after which the signals are read, again at RT, on a Topcount (Packard).
The discovery of compounds that inhibit Shh-induced Gli-transcription exemplifies the utility of the claims in this patent.

IC50 | Compound
< 5 µM | CC(c1nc2ccccc2c(=O)n1-c1ccc(F)cc1)N(C)C(=O)Nc1cc(Cl)nc(Cl)c1 (stereo not shown) [Compound 58]
< 5 µM | O=C(NCCCc1nc2ccccc2c(=O)n1-c1ccc(F)cc1)Nc1cccc(C(F)(F)F)c1 [Compound 74]
< 10 µM | CC(c1nc2ccccc2c(=O)n1-c1ccc(F)cc1)N(Cc1ccco1)C(=O)Nc1cccc(F)c1 (stereo not shown) [Compound 31]
< 10 µM | CC(c1nc2ccccc2c(=O)n1-c1ccc(F)cc1)N(C)C(=O)Nc1ccc(-c2ccccc2)cc1 (stereo not shown) [Compound 56]
< 10 µM | CC(c1nc2ccccc2c(=O)n1-c1ccc(F)cc1)N(C)C(=O)Nc1ccc(Cl)cc1[N+](=O)[O-] (stereo not shown) [Compound 66]
< 5 µM | CC(c1nc2ccccc2c(=O)n1-c1ccc(F)cc1)N(C)C(=O)Nc1cccc(C#N)c1 (stereo not shown) [Compound 51]
< 5 µM | O=C(Nc1cccc(C(F)(F)F)c1)NC(c1nc2ccccc2c(=O)n1-c1ccc(F)cc1)C1CC1 (stereo not shown) [Compound 75]
< 10 µM | COc1cccc(NC(=O)NCc2nc3ccccc3c(=O)n2-c2ccc(F)cc2)c1C [Compound 71]
< 5 µM | Cc1c(NC(=O)NCc2nc3ccccc3c(=O)n2-c2ccc(F)cc2)cccc1SC(F)(F)F [Compound 67]
< 5 µM | CCCN(CCC(=O)NC1CCCc2ccccc21)C(=O)c1cc(OC)cc(OC)c1 (stereo not shown) [Compound 47]
< 5 µM | CC(c1nc2ccccc2c(=O)n1-c1ccc(F)cc1)N(C)C(=O)Nc1ccc(SC(F)(F)F)cc1 (stereo not shown) [Compound 60]
< 10 µM | CCCCCCCCC(=O)N(CCCCC)C(C)c1nc2ccccc2c(=O)n1-c1ccccc1 (stereo not shown) [Compound 41]
< 5 µM | CC(NC(=O)Nc1cccc(C(F)(F)F)c1)c1nc2ccccc2c(=O)n1-c1ccc(F)cc1 (stereo not shown) [Compound 73]
< 10 µM | CC(C)c1cccc(NC(=O)N(C)C(C)c2nc3ccccc3c(=O)n2-c2ccc(F)cc2)c1 (stereo not shown) [Compound 57]
< 5 µM | CCC(c1nc2ccccc2c(=O)[nH]1)N1CCN(C(=O)Nc2ccc(Cl)c(Cl)c2)C(C)C1 (stereo not shown) [Compound 45]
< 1 µM | CC(c1nc2ccccc2c(=O)n1-c1ccc(F)cc1)N(C)C(=O)Nc1ccc(Cl)c(C(F)(F)F)c1 (stereo not shown) [Compound 61]
< 5 µM | CCC(=O)N1CCN(C(CC)c2nc3ccccc3c(=O)n2-c2ccc(C)cc2)C(C)C1 (stereo not shown) [Compound 42]
< 5 µM | CC(c1nc2ccccc2c(=O)n1-c1ccc(F)cc1)N(C)C(=O)Nc1ccc(C(F)(F)F)cc1 (stereo not shown) [Compound 54]
< 5 µM | CCC(c1nc2ccccc2c(=O)n1-c1ccc(C)cc1)N(CCc1ccccc1)C(=O)CCCCF (stereo not shown) [Compound 39]
< 10 µM | CC(c1nc2ccccc2c(=O)n1-c1ccc(F)cc1)N(C)C(=O)Nc1ccc([N+](=O)[O-])cc1Cl (stereo not shown) [Compound 64]
< 10 µM | CC(c1nc2ccccc2c(=O)n1-c1ccc(F)cc1)N1CCN(C(=O)Nc2ccc(Cl)c(Cl)c2)CC1 (stereo not shown) [Compound 43]

IC50 | Compound
< 5 µM | CC(c1nc2ccccc2c(=O)n1-c1ccc(F)cc1)N(C)C(=O)Nc1cccc(C(F)(F)F)c1 (stereo not shown) [Compound 11]
< 1 µM | O=C(Cc1cccc(C(F)(F)F)c1)NCCc1nc2ccccc2c(=O)n1-c1ccc(F)cc1 [Compound 50]
< 1 µM | O=C(NCc1nc2ccccc2c(=O)n1-c1ccc(F)cc1)Nc1cccc(C(F)(F)F)c1 [Compound 44]
< 0.1 µM | O=C(NCc1nc2ccccc2c(=O)n1-c1ccc(F)cc1)Nc1ccc(Cl)c(C(F)(F)F)c1 [Compound 5]
< 5 µM | CCCN(C(=O)Nc1cccc(C(F)(F)F)c1)C(C)c1nc2ccccc2c(=O)n1-c1ccc(F)cc1 (stereo not shown) [Compound 36]
< 5 µM | Cc1c(NC(=O)N(C)C(C)c2nc3ccccc3c(=O)n2-c2ccc(F)cc2)cccc1[N+](=O)[O-] (stereo not shown) [Compound 59]
< 0.5 µM | O=C(NCc1nc2ccccc2c(=O)n1-c1ccc(F)cc1)Nc1cc(Cl)nc(Cl)c1 [Compound 6]
< 5 µM | CCCN(C(=O)Nc1cccc(Cl)c1)C(C)c1nc2ccccc2c(=O)n1-c1ccc(F)cc1 (stereo not shown) [Compound 34]
< 0.5 µM | CCC(C)N(CCC(=O)NC1CCCc2ccccc21)C(=O)c1cccc2ccccc12 (stereo not shown) [Compound 48]
< 1 µM | CC(c1nc2ccccc2c(=O)n1-c1ccc(F)cc1)N(C)C(=O)Nc1cccc(SC(F)(F)F)c1 (stereo not shown) [Compound 52]
< 1 µM | CC(c1nc2ccccc2c(=O)n1-c1ccc(F)cc1)N(C)C(=O)Nc1ccc(Cl)c(Cl)c1 (stereo not shown) [Compound 53]
< 10 µM | CCOC(=O)c1ccccc1NC(=O)N(C)C(C)c1nc2ccccc2c(=O)n1-c1ccc(F)cc1 (stereo not shown) [Compound 63]
< 1 µM | CCC(C)N(CCC(=O)NC1CCCc2ccccc21)C(=O)COc1ccc(Cl)cc1 (stereo not shown) [Compound 49]
< 5 µM | CCCN(C(=O)Nc1cccc(OC)c1)C(C)c1nc2ccccc2c(=O)n1-c1ccc(F)cc1 (stereo not shown) [Compound 38]
< 10 µM | CCCCc1ccc(C(=O)N(Cc2ccccc2)C(CC)c2nc3ccccc3c(=O)n2-c2ccc(C)cc2)cc1 (stereo not shown) [Compound 40]
< 1 µM | O=C(NCc1nc2ccccc2c(=O)n1-c1ccc(F)cc1)Nc1ccc(Cl)c(Cl)c1 [Compound 68]
< 5 µM | CC(c1nc2ccccc2c(=O)n1-c1ccc(F)cc1)N(C)C(=O)Nc1ccc([N+](=O)[O-])c(C(F)(F)F)c1 (stereo not shown) [Compound 32]
< 0.5 µM | CCC(c1nc2ccccc2c(=O)[nH]1)N1CCN(C(=O)c2ccc(-c3ccccc3)cc2)C(C)C1 (stereo not shown) [Compound 46]
< 0.5 µM | O=C(NCc1nc2ccccc2c(=O)n1-c1ccc(F)cc1)Nc1ccc(Cl)c([N+](=O)[O-])c1 [Compound 69]
< 5 µM | CC(c1nc2ccccc2c(=O)n1-c1ccc(F)cc1)N(C)C(=O)Nc1cccc(F)c1 (stereo not shown) [Compound 55]

Compound | IC50
CCOOC(=O)c1cccc(NC(=O)N(C)C(C)c2nc3ccccc3c(=O)n2-c2ccc(F)cc2)c1 (stereo not shown) [Compound 65] | < 10 µM
CC(c1nc2ccccc2c(=O)n1-c1ccc(F)cc1)N(C)C(=O)Nc1ccc([N+](=O)[O-])c(Cl)c1 (stereo not shown) [Compound 62] | < 1 µM
